These results are taken from US9067944B2, “Process for the preparation of anagrelide and analogues thereof” (SHIRE LLC, priority 2010, dated 2015).

The conditions of data set [1]: radiolabeled base, monkeys; cited from earlier work.
The conditions of data set [2]: radiolabeled base, humans; cited from earlier work.
For data set [3] the following is noted: solid form; cited from earlier work.
The nature of data set [4]: solubility of the tosylate salt. The class given is physicochemical. Conditions: crystalline tosylate salt.

Like-named read-outs stand apart in the source and are kept apart here.

With `O=C1CN2Cc3c(ccc(Cl)c3Cl)N=C2N1` [compound III, 6,7-dichloro-1,5-dihydroimidazo[2,1-b]quinazolin 2 (3H)-one], the “absorption into blood plasma” value in data set [1] and in data set [2] was “complete absorption” each time. Besides, the aqueous solubility entry in data set [3] is “low”.
`CC1(C)C(=O)NC2=Nc3ccc(Cl)c(Cl)c3CN21.Cc1ccc(S(=O)(=O)O)cc1` [3,3-dimethylanagrelide tosylate, 3,3-Dimethylanagrelide Tosylate]: the solubility entry in data set [4] is given as “soluble”.
